Data taken from patent US11795615B2 (priority 2015, dated 2023).

How the values were obtained:
[1] = Side by side bleaching of Kraft pulp, hand sheet Kappa number, pH and ORP; settings: for Kappa No.: unbleached 30
[2] = Thermal activation in distilled water at pH 8.5 and 50° C.; format: physicochemical; settings: pH 8.5, 50° C.
[3] = system: microbial control in water; experiment: Microbial control in water at slightly alkaline pH; format: cell-based
Text: In some embodiments, microbial control in water at slightly alkaline pH was compared between peracetate oxidant, […] bleach, peracetic acid and […] dioxide. Alkaline pH is encountered in a variety of applications where microbial control and sanitization is needed, including pulp and paper processing, cooling towers, water treatment and chill tanks in poultry processing. […].

[4] = gas; cited from earlier work
[5] = 20° C.; cited from earlier work
[6] = 1.13 g/L PAA equiv., initial pH 8.2, 30 min

CC(=O)OO [PAA, peracetic acid]
Kappa No. ([1]; 4.0 g/L PAA equiv., initial pH 7.0, 30 min): 31
Kappa No. ([1]; 4.0 g/L PAA equiv., initial pH 8.9, 30 min): 29
Kappa unit reduction (bleaching efficiency) ([1]; hand sheet tests, initial Kappa number 30): only up to one Kappa unit reduction
time of stable peracetic acid and hydrogen peroxide concentrations [2]: about 90 minutes
ORP ([2]; peracetate value within 40 minutes): around 280 mV vs SHE
performance as antimicrobial disinfectant [3]: lowest performance

chlorine dioxide [ClO2]
Final ORP [1, 6]: 896 mV vs SHE
Kappa No. [1, 6]: 22
performance as antimicrobial disinfectant [3]: performed well
vapor pressure [4]: greater than 1 atm
solubility limit in water [5]: 0.8 % wt/vol
